What was measured:
(CUG)10 RNA = assay: Fluorescence titration (benzo[g]quinoline quenching); format: binding; conditions: (CUG)10, 1 μM compound in HBS-N, read-out: Apparent KD
Procedure: The benzo[g]quinoline moiety is fluorescent, with excitation and emission maxima at 362 nm and 439 nm respectively in methanol. Fluorescence titration binding measurements were performed on a Cary Eclipse fluorescence spectrophotometer using a 10 mm path-length semimicro quartz fluorescence cell with 400 μL sample holding capacity. Absorbance measurements were carried out on a UV-Visible spectrophotometer (Shimadzu, UV-1601PC) using a 1 mL (1 cm path-length) quartz cell. Spectroscopic grade anhydrous methanol used in the measurement of relative quantum yield of the 2-ethyl benzo[g]quinoline carboxylic acid was purchased from Alfa Aesar and was used without further purification. For these measurements, known procedures were used (Lee and Grissom, “Design, Synthesis, and Characterization of Fluorescent Cobalamin Analogues with High Quantum Efficiencies,” Org. Lett. 11:2499-2502 (2009); Joseph R. Lakowicz, Principles of Fluorescence Spectroscopy, 2nd edition (Kluwer Academic/Plenum Publishers, 1999), which are hereby incorporated by reference in their entirety). Briefly, RNA (10 μM stock) in HBS-N buffer was titrated into a solution of 1 μM compound in HBS-N. After each addition of RNA, ten minutes were allowed for equilibration before recording the change in fluorescence at 468.5 nm. Fluorescence units (“FU”) were then corrected for dilution and the FU after each addition was subtracted from the FU at zero RNA concentration to give AFU. Following saturation, AFU was plotted against RNA concentration using Origin 7 (OriginLab, Inc.), and fitted to a 1:1 Langmuir binding model to obtain apparent dissociation constants (Kn). […]
Selected equilibrium affinities for (CUG)10 were confirmed by fluorescence titration. The quantum yield of the ethylbenzo[g]quinoline carboxylic acid (compound 2), relative to quinine sulfate, was determined to be 0.64 (FIGS. 5A-F). […] Apparent KD values measured in this manner are consistent with those obtained by SPR (Table 6); that they are not identical to SPR-measured values likely results from the differing formats of the two methods. […]

human fibroblasts = assay: MTT toxicity assay; format: cell-based; conditions: compounds 4 and 5 measured as a mixture, concentrations up to 500 μM
Procedure: For toxicity studies, mouse myoblasts or human fibroblasts were plated in a 96-well tissue culture plate in DMEM (10% fetal bovine serum, 100 units/ml penicillin, […]) and allowed to grow to approximately 80% confluence at 37° C. under CO2. Varying compound concentrations (up to 1 mM) were incubated with cells (48 hours, 37° C.). Media was then removed, and 3-(4,5-dimethylthiazol-2-yl)-2,5-diphenyltetrazolium bromide (“MTT”) in media was added to each well and incubated at 37° C. for 4 h. After removal of the MTT media, isopropanol (100 pp was added, and absorbance was measured at 600 nm on a Modulus microplate reader (Turner Biosystems).
SPR and fluorescence titration experiments, performed using the protocol described in Examples 3 and 4 above, except using as the target a highly conserved RNA sequence responsible for regulating the production of the Gag-Pol polyprotein via a −1 ribosomal frameshift, which occurs along a “slippery sequence” in gag-pol mRNA (SEQ ID NO: 7). This “frameshift stimulatory sequence” (or “HIV-1 FSS”) consists of an upper stemloop and a lower stem, separated by a purine bulge in the most common types of HIV (FIG. 19). For the fluorescent titration experiments, the upper stemloop of SEQ ID NO: 7 was employed. Cell uptake and toxicity studies were carried out using human fibroblasts according to Example 5 above.

SMILES	Kd ((CUG)10 RNA) [nM]	toxicity (MTT) (human fibroblasts)
CCc1nc2cc3ccccc3cc2cc1C(=O)N1CCC[C@H]1C(=O)N[C@@H](C/C=C/C[C@H](NC(=O)[C@@H]1CCCN1C(=O)c1cc2cc3ccccc3cc2nc1CC)C(=O)N[C@@H](CCCCN)C(=O)NCCCN)C(=O)N[C@@H](CCCCN)C(=O)NCCCN [Compound 5]	70.4 ± 1.1	no significant toxicity
CCc1nc2cc3ccccc3cc2cc1C(=O)N1CCC[C@H]1C(=O)N[C@@H](C/C=C\C[C@H](NC(=O)[C@@H]1CCCN1C(=O)c1cc2cc3ccccc3cc2nc1CC)C(=O)N[C@@H](CCCCN)C(=O)NCCCN)C(=O)N[C@@H](CCCCN)C(=O)NCCCN [Compound 4]	66.3 ± 2.1	no significant toxicity
